Laboratory results reported in patent publication US20250136593A1, “DEGRADATION AGENT AND USE THEREOF” (HITGEN INC., priority 2021, published 2025).
pIC50: −log10 of the molar value.

Key:
[1] = target: ternary complex between BCL-XL and CRBN-DDB1 (Homo sapiens, UniProt Q07817+Q96SW2); assay: Compound-induced formation of ternary complex between BCL-XL and CRBN-DDB1 by AlphaLISA; format: biochemical; parameters: key: the number of + indicates the intensity of AlphaLISA peak signal; ++: the number of + indicates the intensity of AlphaLISA peak signal; +++: the number of + indicates the intensity of AlphaLISA peak signal; ++++: the number of + indicates the intensity of AlphaLISA peak signal; +++++: the number of + indicates the intensity of AlphaLISA peak signal; details: peak signal; 60 nM Strep-BCL-XL and 60 nM His-CRBN/DDB1
Procedure: Experimental Example 4, Detection of Compound-Induced Formation of Ternary Complex Between BCL-XL and CRBN-DDB1 by AlphaLISA Method
Na2HPO4(Sigma), NaH2PO4(Sigma), sodium chloride (Sigma), Tween-20 (Sigma), AlphaLISA®Nikel Chelate Acceptor beads (PerkinElmer), Strep-Tactin® Alpha Donor beads (PerkinElmer), Assay plate (Corning), Strep-BCl-XL (HitGen), His-CRBN/DDB1 (HitGen).
DMSO was used to dissolve the dry powder of the test compound to obtain a 10.00 mM solution. The instrument ECHO was used to perform gradient dilution of the compound, which was then added to a 384-well reaction plate (Corning, Cat #3824), so that the final concentration of DMSO in the entire reaction system (10.0 μL) was less than 1%, and the same amount of DMSO was added and used as a control.
Strep-BCl-XL and His-CRBN/DDB1 proteins were dissolved in buffer (10 mM NaH2PO4, 40 mM Na2HPO4, 150 mM sodium chloride, 0.03% Tween20, pH=7.4) to obtain a protein mixture of 60 nM Strep-BCL-XL and 60 nM His-CRBN/DDB1, the protein mixture (5ul/well) was added to the 384-well plate in which the compound had been added, and incubated at room temperature for 30 minutes, then 5 μl of a detection mixture with 50 μg/ml AlphaLISA®Nikel Chelate Acceptor beads and 50 μg/ml Strep-Tactin® Alpha Donor beads was added, and incubated at room temperature for 2 hours; and then a microplate reader was used to detect AlphaLISA signal.
Fifth order polynomial or Sixth order polynomial in Polynomial of Graphpad 6.0 was used for data fitting.

[2] = system: MOLT-4 cells; assay: Inhibitory activity on MOLT4 cell proliferation by Cell Titer-Glo method; format: cell-based; details: Homo sapiens, 72 hours incubation, read-out: IC50 concentration for inhibiting MOLT-4 cells
Procedure: Experimental Example 5, Evaluation Experiment of Inhibitory Activity of Compound on MOLT4 Cell Proliferation by Cell Titer-Glo Method
RPMI medium modified (Hyclone), FBS (Corning), Dimethyl Sulfoxide, P/S, CellTiter-Gbo Luminescent Cell Viability Assay (Promega), MOLT-4 cell (ATCC).
MOLT-4 cells were cultured in monolayer in vitro in an incubator containing 5% CO2 air at 37° C. The culture medium was RPMI 1640 with 10% FBS and 1% P/S. 15 μL of MOLT4 cells, containing 5×10^4 cells per ml, was inoculated to a 384-well plate (Corning, 3707), 750 cells/well, and incubated at 37° C. and 5% CO2 for 30 minutes. Then the compound that had been diluted in advance was added, with a total of 9 concentration points, and 2 parallel repetitions for each concentration point. The cell growing group without adding the compound was used as a negative control (maximum signal control), and the culture medium group was used as a blank control (minimum signal control). At the same time, it was ensured that the final DMSO content in each reaction well was 0.1%. The compound and the cells were incubated in a cell culture incubator at 37° C., 5% CO2 for 3 days (72 hours).
The 384-well plate was taken out from the cell culture incubator and allowed to stand at room temperature, equilibrated for 20 to 30 minutes, and then 25 μl of Cell Titer-Glo detection reagent was added to each reaction well, lysed on a shaker for 2 minutes, incubated for 10 minutes, and BMG PHERAStar (Luminescence) was used for reading.
The inhibition rate was calculated based on the luminescence signals: the average value of the negative control (maximum signal control) and the blank control (minimum signal control) was first calculated, then the inhibition rates of the compound at different concentrations for the cells were calculated as follows:
The IC50 of the compound to inhibit cell activity was calculated by fitting with GraphPad Prism 6 using log(inhibitor) vs. response−Variable slope mode. The fitting equation was: Y=Bottom+(Top−Bottom)/(1+10^((LogIC50−X)*HillSlope)), wherein Y represented the inhibition rate and X represented the known compound concentration after Log.

ternary complex between BCL-XL and CRBN-DDB1, sequence (Q07817 whole entry): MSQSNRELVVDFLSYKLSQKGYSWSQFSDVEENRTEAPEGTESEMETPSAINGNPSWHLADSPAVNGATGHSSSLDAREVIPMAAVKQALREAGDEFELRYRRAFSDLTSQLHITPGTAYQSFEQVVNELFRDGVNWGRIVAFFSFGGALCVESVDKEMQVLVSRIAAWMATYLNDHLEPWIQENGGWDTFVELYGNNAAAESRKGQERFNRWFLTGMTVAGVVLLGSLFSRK
ternary complex between BCL-XL and CRBN-DDB1, sequence (Q96SW2 whole entry): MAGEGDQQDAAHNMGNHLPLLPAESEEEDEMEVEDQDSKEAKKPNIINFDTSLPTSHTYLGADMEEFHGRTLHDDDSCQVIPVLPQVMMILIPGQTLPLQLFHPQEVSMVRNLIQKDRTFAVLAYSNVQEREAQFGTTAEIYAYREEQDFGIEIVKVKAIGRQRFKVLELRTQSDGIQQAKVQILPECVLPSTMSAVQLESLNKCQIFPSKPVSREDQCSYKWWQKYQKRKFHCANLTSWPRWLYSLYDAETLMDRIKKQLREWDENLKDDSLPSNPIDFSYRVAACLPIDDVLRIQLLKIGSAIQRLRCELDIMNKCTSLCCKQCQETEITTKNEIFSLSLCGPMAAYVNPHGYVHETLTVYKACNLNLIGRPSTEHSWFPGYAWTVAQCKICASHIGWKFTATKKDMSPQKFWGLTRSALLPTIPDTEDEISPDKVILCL
ternary complex between BCL-XL and CRBN-DDB1, sequence (Q16531 whole entry partner): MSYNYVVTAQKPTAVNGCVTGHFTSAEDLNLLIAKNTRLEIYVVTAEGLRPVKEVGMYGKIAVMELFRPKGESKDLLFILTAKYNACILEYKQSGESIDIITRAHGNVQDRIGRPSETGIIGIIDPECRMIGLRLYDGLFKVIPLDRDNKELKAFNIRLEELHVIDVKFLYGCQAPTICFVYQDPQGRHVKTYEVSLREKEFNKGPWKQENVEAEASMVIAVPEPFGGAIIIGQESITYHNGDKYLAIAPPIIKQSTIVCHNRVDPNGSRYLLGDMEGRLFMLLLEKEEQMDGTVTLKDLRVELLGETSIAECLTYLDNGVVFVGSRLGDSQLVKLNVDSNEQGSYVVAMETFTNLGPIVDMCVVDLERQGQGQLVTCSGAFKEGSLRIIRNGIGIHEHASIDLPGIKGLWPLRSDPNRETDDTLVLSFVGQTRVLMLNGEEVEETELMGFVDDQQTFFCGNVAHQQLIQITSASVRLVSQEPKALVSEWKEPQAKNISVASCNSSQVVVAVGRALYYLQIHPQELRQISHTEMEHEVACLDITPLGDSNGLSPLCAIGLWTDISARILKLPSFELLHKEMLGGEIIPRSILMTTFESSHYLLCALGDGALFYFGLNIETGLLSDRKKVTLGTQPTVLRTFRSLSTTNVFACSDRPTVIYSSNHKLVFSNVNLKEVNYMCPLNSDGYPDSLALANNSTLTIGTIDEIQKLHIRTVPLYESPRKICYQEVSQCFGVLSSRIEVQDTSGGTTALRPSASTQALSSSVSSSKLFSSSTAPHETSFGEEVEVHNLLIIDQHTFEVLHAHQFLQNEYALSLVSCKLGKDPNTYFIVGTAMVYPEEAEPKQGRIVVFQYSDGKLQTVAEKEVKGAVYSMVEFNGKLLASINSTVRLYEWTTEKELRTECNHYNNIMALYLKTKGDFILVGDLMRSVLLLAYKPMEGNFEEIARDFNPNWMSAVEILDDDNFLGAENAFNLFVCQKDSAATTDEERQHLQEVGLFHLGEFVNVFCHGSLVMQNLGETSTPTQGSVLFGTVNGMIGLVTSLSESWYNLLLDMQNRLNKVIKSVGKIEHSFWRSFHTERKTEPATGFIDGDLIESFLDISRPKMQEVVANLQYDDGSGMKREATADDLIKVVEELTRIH

AlphaLISA signal (PROTAC ternary complex signal intensity) [1]	pIC50 [2]	SMILES
+	–	CNc1nc(-c2cnc3ccccc3c2)nc2c1CCN(C(=O)c1ccc(/C=C/c3ccc(C#CCN4CCN(C(=O)CCCCCCCCC(=O)N[C@H](C(=O)N5C[C@H](O)C[C@H]5C(=O)N[C@@H](C)c5ccc(-c6scnc6C)cc5)C(C)(C)C)CC4)cc3)cc1)C2 [Compound G2-7]
+	–	CNc1nc(-c2cnc3ccccc3c2)nc2c1CCN(C(=O)c1ccc(/C=C/c3ccc(C#CCN4CCN(C(=O)CCCCCCC(=O)N[C@H](C(=O)N5C[C@H](O)C[C@H]5C(=O)NCc5ccc(-c6scnc6C)cc5)C(C)(C)C)CC4)cc3)cc1)C2 [Compound G2-6]
+	–	C=Cc1cc(-c2nc3c(c(NC)n2)CCN(C(=O)c2ccc(COc4ccc(C#CCN5CCN(CCCOc6cccc7c6C(=O)N(C6CCC(=O)NC6=O)C7=O)CC5)cc4)cc2)C3)cnc1C=C (stereo not drawn) [Compound C3-14]
+	–	C=Cc1cc(-c2ncc3c(n2)CN(C(=O)c2ccc(/C=C/c4ccc(C#CCN5CCN(CCCCCCOc6cccc7c6C(=O)N(C6CCC(=O)NC6=O)C7=O)CC5)cc4)cc2)CC3)cnc1C=C (stereo not drawn) [Compound C3-3]
+++	–	C=Cc1cc(-c2nc3c(c(NC)n2)CCN(C(=O)c2ccc(COc4ccc(C#CCN5CCN(CCCCCCCCOc6cccc7c6C(=O)N(C6CCC(=O)NC6=O)C7=O)CC5)cc4)cc2)C3)cnc1C=C (stereo not drawn) [Compound C3-18]
+++	–	C=Cc1cc(-c2nc3c(c(NC)n2)CCN(C(=O)c2ccc(COc4ccc(C#CCN5CCN(CCCCCCCCNc6cccc7c6C(=O)N(C6CCC(=O)NC6=O)C7=O)CC5)cc4)cc2)C3)cnc1C=C (stereo not drawn) [Compound C2-5]
++	4.00 to 4.30	CNc1nc(-c2cnc3ccccc3c2)nc2c1CCN(C(=O)c1ccc(COc3ccc(C#CCN4CCN(C(=O)CCCn5cc(COCCOCCNc6cccc7c6C(=O)N(C6CCC(=O)NC6=O)C7=O)nn5)CC4)cc3)cc1)C2 (stereo not drawn) [A]
++	4.00 to 4.30	C=Cc1cc(-c2ncc3c(n2)CN(C(=O)c2ccc(/C=C/c4ccc(C#CCN5CCN(C6CCN(CC#Cc7cccc8c7CN(C7CCC(=O)NC7=O)C8=O)CC6)CC5)cc4)cc2)CC3)cnc1C=C (stereo not drawn) [Compound E1-2]
+	–	CNc1nc(-c2cnc3ccccc3c2)nc2c1CCN(C(=O)c1ccc(/C=C/c3ccc(C#CCN4CCN(C(=O)CCCCC(=O)N[C@H](C(=O)N5C[C@H](O)C[C@H]5C(=O)NCc5ccc(-c6scnc6C)cc5)C(C)(C)C)CC4)cc3)cc1)C2 [Compound G2-4]
+	3.70 to 4.00	O=C1CCC(N2Cc3c(C#CCCCN4CCN(CC#Cc5ccc(/C=C/c6ccc(C(=O)N7CCc8cnc(-c9cnc%10ccccc%10c9)nc8C7)cc6)cc5)CC4)cccc3C2=O)C(=O)N1 (stereo not drawn) [Compound D2-4]
+	–	CNc1nc(-c2cnc3ccccc3c2)nc2c1CCN(C(=O)c1ccc(/C=C/c3ccc(C#CCN4CCN(CCCCC(=O)N[C@H](C(=O)N5C[C@H](O)C[C@H]5C(=O)N[C@@H](C)c5ccc(-c6scnc6C)cc5)C(C)(C)C)CC4)cc3)cc1)C2 [Compound G3-1]
++	–	C=Cc1cc(-c2ncc3c(n2)CN(C(=O)c2ccc(COc4ccc(C#CCN5CCN(CCCCCOc6cccc7c6C(=O)N(C6CCC(=O)NC6=O)C7=O)CC5)cc4)cn2)CC3)cnc1C=C (stereo not drawn) [Compound C3-10]
++++	–	C=Cc1cc(-c2nc3c(c(NC)n2)CCN(C(=O)c2ccc(COc4ccc(C#CCN5CCN(CCCCCCNc6cccc7c6C(=O)N(C6CCC(=O)NC6=O)C7=O)CC5)cc4)cc2)C3)cnc1C=C (stereo not drawn) [Compound C2-4]
+	–	CNc1nc(-c2cnc3ccccc3c2)nc2c1CCN(C(=O)c1ccc(/C=C/c3ccc(C#CCN4CCN(C(=O)CCCC(=O)N[C@H](C(=O)N5C[C@H](O)C[C@H]5C(=O)NCc5ccc(-c6scnc6C)cc5)C(C)(C)C)CC4)cc3)cc1)C2 [Compound G2-3]
+	–	C=Cc1cc(-c2nc3c(c(NC)n2)CCN(C(=O)c2ccc(COc4ccc(C#CCN(C)CCCCOc5cccc6c5C(=O)N(C5CCC(=O)NC5=O)C6=O)cc4)cc2)C3)cnc1C=C (stereo not drawn) [Compound B2]
+	–	CNc1nc(-c2cnc3ccccc3c2)nc2c1CCN(C(=O)c1ccc(/C=C/c3ccc(C#CCN4CCN(C(=O)CCC(=O)N[C@H](C(=O)N5C[C@H](O)C[C@H]5C(=O)N[C@@H](C)c5ccc(-c6scnc6C)cc5)C(C)(C)C)CC4)cc3)cc1)C2 [Compound G2-2]
+	–	CNc1nc(-c2cnc3ccccc3c2)nc2c1CCN(C(=O)c1ccc(/C=C/c3ccc(C#CCN4CCN(C(=O)CCCCCC(=O)N[C@H](C(=O)N5C[C@H](O)C[C@H]5C(=O)NCc5ccc(-c6scnc6C)cc5)C(C)(C)C)CC4)cc3)cc1)C2 [Compound G2-5]
+	–	C/C=c1/cc(-c2nc3c(c(NC)n2)CCN(C(=O)c2ccc(COc4ccc(C#CCN(C)CCCCCOc5cccc6c5C(=O)N(C5CCC(=O)NC5=O)C6=O)cc4)cc2)C3)cn/c1=C/C (stereo not drawn) [Compound B3]
+	–	C=Cc1cc(-c2nc3c(c(NC)n2)CCN(C(=O)c2ccc(COc4ccc(C#CCN5CCN(CCCCOc6cccc7c6C(=O)N(C6CCC(=O)NC6=O)C7=O)CC5)cc4)cc2)C3)cnc1C=C (stereo not drawn) [Compound C3-15]
–	5.00 to 6.00	CNc1nc(-c2cnc3ccccc3c2)nc2c1CCN(C(=O)c1ccc(/C=C/c3ccc(C#CCN4CCN(C5CCN(c6ccc7c(c6)CN(C6CCC(=O)NC6=O)C7=O)CC5)CC4)cc3)cc1)C2 (stereo not drawn) [Compound F2-7]
+	–	C=Cc1cc(-c2ncc3c(n2)CN(C(=O)c2ccc(COc4ccc(C#CCN5CCN(CCCCCOc6cccc7c6C(=O)N(C6CCC(=O)NC6=O)C7=O)CC5)nc4)cc2)CC3)cnc1C=C (stereo not drawn) [Compound C3-13]
–	5.00 to 6.00	C=Cc1cc(-c2nc3c(c(NC)n2)CCN(C(=O)c2ccc(COc4ccc(C#CCN5CCN(CCCNc6cccc7c6C(=O)N(C6CCC(=O)NC6=O)C7=O)CC5)cc4)cc2)C3)cnc1C=C (stereo not drawn) [Compound C2-6]
–	3.70 to 4.00	CNc1nc(-c2cnc3ccccc3c2)nc2c1CCN(C(=O)c1ccc(/C=C/c3ccc(C#CCN4CCN(CCCCC#Cc5cccc6c5CN(C5CCC(=O)NC5=O)C6=O)CC4)cc3)cc1)C2 (stereo not drawn) [Compound D2-7]
–	5.00 to 6.00	O=C1CCC(N2Cc3cc(C4CN(C5CCN(CC#Cc6ccc(OCC78CC(C(=O)N9CCc%10cnc(-c%11cnc%12ccccc%12c%11)nc%10C9)(C7)C8)cc6)CC5)C4)ccc3C2=O)C(=O)N1 (stereo not drawn) [Compound F1A-5]
–	< 3.70	O=C1CCC(N2C(=O)c3cccc(N4CC5(CC(N6CCN(CC#Cc7ccc(/C=C/c8ccc(C(=O)N9CCc%10cnc(-c%11cnc%12ccccc%12c%11)nc%10C9)cc8)cc7)CC6)C5)C4)c3C2=O)C(=O)N1 (stereo not drawn) [Compound F3A-1]
+	–	CNc1nc(-c2cnc3ccccc3c2)nc2c1CCN(C(=O)c1ccc(/C=C/c3ccc(C#CCN4CCN(CCCCC(=O)N[C@H](C(=O)N5C[C@H](O)C[C@H]5C(=O)NCc5ccc(-c6scnc6C)cc5)C(C)(C)C)CC4)cc3)cc1)C2 [Compound G1-4]
–	< 3.70	C=Cc1cc(-c2ncc3c(n2)CN(C(=O)c2ccc(/C=C/c4ccc(C#CCN5CCN(CCCCCOc6cccc7c6C(=O)N(C6CCC(=O)NC6=O)C7=O)CC5)nc4)cc2)CC3)cnc1C=C (stereo not drawn) [Compound C3-8]
